Results reported in US20030034248A1, “Electrodeposition baths containing boron-containing compounds and methods related thereto” (priority 2001, published 2003).

System: bacteria
Assay: Bacteria resistance testing: bacteria counts (spread plate, R2A agar) in infected electrodeposition ultrafiltrate permeate
Assay type: cell-based
Conditions: for Bacteria Count 3 day: plated at 3 days; for Bacteria Count 7 day: plated at 7 days; for Bacteria Count 10 day: plated at 10 days
Procedure: Infected ultrafiltrate from an online electrodeposition bath tank (containing E6100H, commercially available from PPG Industries, Inc.) having a bacterial count of 4.5×10^6 cfu/mL was used to inoculate filter-sterilized ultrafiltrate (“permeate”) collected from the same line. The infected ultrafiltrate was diluted by a factor of 10^4 into the sterile permeate. The infected permeate was added to reactors. The various acids listed below in the following Table 2 were prepared as 1 % solutions in water and tested at 2000, 1000, 500, 200, 100, and 50 ppm of active material. Reactors were rolled for 10 days at 32° C. and were plated for bacteria counts at 3, 7, and 10 days.
The enumeration of […] heterotrophs in the reactors utilized the standard spread plate method as described in Standard Methods for the Examination of Water and Wastewater, 1992, section 9215C. Bacterial counts were examined using R2A agar plates. 100 μL of a suitable dilution of sample was pipetted onto the surface of the media and spread with an alcohol and flame sterilized glass rod. The plates were inverted and incubated for 3 days at 32° C. with periodic examination. Colony forming units were counted on a New Brunswick Bactronic Colony Counter. A target of 30 to 300 cfu per plate was considered a valid count.

[1] = acid at 50 ppm of active material (boric acid: 8.9 ppm B), 32° C.
[2] = acid at 100 ppm of active material (boric acid: 17.8 ppm B), 32° C.
[3] = acid at 200 ppm of active material (boric acid: 35.5 ppm B), 32° C.
[4] = acid at 500 ppm of active material (boric acid: 89 ppm B), 32° C.
[5] = acid at 1000 ppm of active material (boric acid: 177.5 ppm B), 32° C.
[6] = acid at 2000 ppm of active material (boric acid: 355 ppm B), reactors rolled at 32° C.

| SMILES | Bacteria Count 3 day [1] | Bacteria Count 7 day [1] | Bacteria Count 10 day [1] | Bacteria Count 3 day [2] | Bacteria Count 7 day [2] | Bacteria Count 10 day [2] | Bacteria Count 3 day [3] | Bacteria Count 7 day [3] | Bacteria Count 10 day [3] | Bacteria Count 3 day [4] | Bacteria Count 7 day [4] | Bacteria Count 10 day [4] | Bacteria Count 3 day [5] | Bacteria Count 7 day [5] | Bacteria Count 10 day [5] | Bacteria Count 3 day [6] | Bacteria Count 7 day [6] | Bacteria Count 10 day [6] | levels at which the growth of bacteria is retarded (as compared to lactic acid in an analogous composition, summary of Table 2) [ppm] |
| --- | --- | --- | --- | --- | --- | --- | --- | --- | --- | --- | --- | --- | --- | --- | --- | --- | --- | --- | --- |
| OB(O)O [Boric Acid] | 8.8 × 10^2 | 4.6 × 10^6 | 4.0 × 10^3 | 3.0 × 10^2 | 5.6 × 10^5 | 1.4 × 10^7 | 3.6 × 10^2 | 2.8 × 10^3 | 2.0 × 10^6 | <4.0 × 10^1 | <4.0 × 10^1 | <4.0 × 10^1 | <4.0 × 10^1 | <4.0 × 10^1 | <4.0 × 10^1 | <4.0 × 10^1 | <4.0 × 10^1 | <4.0 × 10^1 | ≥ 500 |
| CC(O)C(=O)O (stereo not shown) [Lactic Acid, reference compound] | 9.2 × 10^5 | 4.4 × 10^7 | 3.8 × 10^7 | 8.8 × 10^5 | 4.4 × 10^7 | 2.4 × 10^6 | 1.5 × 10^6 | 1.6 × 10^7 | 1.2 × 10^7 | 1.6 × 10^7 | 4.0 × 10^7 | 2.8 × 10^6 | 9.6 × 10^6 | 3.2 × 10^7 | <4.0 × 10^5 | 2.1 × 10^6 | 4.8 × 10^7 | 1.1 × 10^7 | – |
